The text below walks through data of patent US11850252B2, “Use of nor-ursodeoxycholic acid for reducing liver fat” (Dr. Falk Pharma GmbH, priority 2017, dated 2023).

Values joined by “and” are separate entries in the source; they are usually repeats but may differ in a detail not shown here. Equal entries are not always repeated.

The test system of data set [1] is acyl coenzyme A synthetase. Conditions: in contrast to UDCA; cited from earlier work.
The subject of data set [2] is Patients with a clinical diagnosis of non-alcoholic hepatic steatosis. The data set can be described thus: Hepatic fat fraction measured by MRI and/or MRS, phase II clinical trial. The class given is in vivo, human. On the procedure:
(§1) A double-blinded, randomized, placebo-controlled phase II clinical trial was conducted as described in the following.
(§2) Patients with a clinical diagnosis of non-alcoholic hepatic steatosis were randomized to a 12-week treatment period and a 4-week follow-up. Patients were divided into three groups. The first groups received 1,500 mg Nor-UDCA per day (6 capsules with 250 mg Nor-UDCA in each capsule). The second group received 500 mg Nor-UDCA per day (2 capsules with 250 mg Nor-UDCA in each capsule and 4 capsules with 250 mg placebo in each capsule). The third group received 6 capsules with 250 mg placebo in each capsule.
If available, magnetic resonance imaging/spectroscopy (MRI/MRS) examinations were performed at V1 or within 4 weeks before and 1 week after V1 and at V6. Both, MRI and MRS are MR-based methods to separate the liver signal into its water and fat components. The resonance frequencies corresponding to protons in water and to the dominant protons in fat are distinct, and can be quantified directly from the spectral tracing.
The following equation was to be used to calculate the hepatic fat fraction derived from chemical shift imaging (CSI) data: CSI hepatic fat fractionunoorrected=SIin phase−SIopposed phase/2×SIin phase
To account for signal intensity differences not dependent of the fat content, a region of interest was also placed in the spleen in the same image as the liver measurements were performed. To calculate the signal-intensity corrected (using the spleen measurements) hepatic fat fraction, the equation above will be adopted as follows: CSI hepatic fat fractionspleen correction=(SIin phase liver/SIspleen)−(SIopposed phase liver/SIspleen)/2×(SIin phase liver/SIspleen)
If the calculations lead to negative mean hepatic fat fraction values, these negative values were considered as a fat fraction of 0, because a negative value is not possible.
MRS were performed at 1.5 or 3.0 Tesla to determine hepatic triglyceride content (in %).

For data set [3] the test system is unchanged. Nature of the data set: Ultrasound examination of the liver (steatosis hepatis grade), phase II clinical trial. The data set is classed as in vivo, human. On the procedure: as §1, §2
The ultrasound examination was performed at V1 or within 4 weeks before and 1 week after V1 and at V6.
The liver was scored by the most affected area.

The test system of data set [4] is experimental alcoholic steatohepatitis. To be noted: preventive administration; compared to UDCA; Belonovskaya et al. (2013); cited from earlier work.
The mark [5] stands for this setting: N500 (500 mg Nor-UDCA per day), V1 screening.
Where [6] appears, read: N1500 (1,500 mg Nor-UDCA per day), V1 screening.
Setting [7] is: N500 (500 mg Nor-UDCA per day), V6 week 12.
The mark [8] stands for this setting: N1500 (1,500 mg Nor-UDCA per day), V6 week 12.

Regarding `CC(CC(=O)O)[C@H]1CCC2[C@H]3C(CC[C@@]21C)[C@@]1(C)CCC(O)C[C@H]1C[C@@H]3O` (stereo partly drawn) [Nor-UDCA, 24-nor-ursodeoxycholic acid], the “N-acyl amidation with taurine or glycine” value in data set [1] is “only minimal”. In addition, in data set [1], the “substrate for acyl coenzyme A synthetase” value was “poor substrate”. Further, the “Hepatic fat fraction measured by MRI and/or MRS, Mean ± SD” value in data set [2] (setting [5]) was 14.6 ± 14.5%; in data set [2] (N500 (500 mg Nor-UDCA per day), V6-LOCF week 12) it was 15.5 ± 13.5%; in data set [2] (setting [6]) it was 21.3% and 21.3 ± 15.4%; in data set [2] (N1500 (1,500 mg Nor-UDCA per day), V6-LOCF week 12), 16.3% and 16.3 ± 14.4%. The “decrease in the hepatic fat fraction” value in data set [2] (group receiving 500 mg) is recorded as “no substantial decrease”. Besides, the “Number (%) of patients, steatosis hepatis grade Mild steatosis (S1)” value in data set [3] (setting [5]) is 21.2%; in data set [3] (setting [7]) it was 28.8%; in data set [3] (setting [6]), 26.6%; in data set [3] (setting [8]) it was 26.6%. Also, the “Number (%) of patients, steatosis hepatis grade Moderate steatosis (S2)” value is listed as 45.5% in data set [3] (setting [5]), 51.5% in data set [3] (setting [7]), 53.1% in data set [3] (setting [6]) and 62.5% in data set [3] (setting [8]). For the same compound, the “Number (%) of patients, steatosis hepatis grade No/minimal steatosis (S0)” value was found to be 6.1% in data set [3] (setting [5]), 3.0% in data set [3] (setting [7]), 0.0% in data set [3] (setting [6]) and 0.0% in data set [3] (setting [8]). Also, the “Number (%) of patients, steatosis hepatis grade Severe steatosis (S3)” value in data set [3] (setting [5]) is reported as 27.3%; in data set [3] (setting [7]), 16.7%; in data set [3] (setting [6]), 20.3%; in data set [3] (setting [8]), 10.9%. For the same compound, the “preventing the accumulation of triglycerides in the liver” value in data set [4] is given as “most effective”.
